The record followed here is US20060217394A1, “Treatment of anhedonia” (priority 2005, published 2006).

The test system of series [1] is patients receiving SSRI or SNRI treatment for major depressive disorder. Nature of the series: Retrospective review of patients receiving SSRI or SNRI treatment for major depressive disorder: late-appearing anhedonic symptoms. The conditions noted are these: individual patient. Format: in vivo. The text has this: Although in the majority of so afflicted patients the diagnosis will be apparent during this interval, it should be understood that iatrogenic anhedonia may appear earlier or later during any course of treatment with medications that increase serotonin transmission efficiency with or without similar increases in the efficiency and availability of norepinephrine. The rather substantial number of patients suffering from the condition over diverse population samples may be postulated to be due to a genetic predisposition for the condition.
Patients in whom SSRIs produced excellent remission of major depressive disorder for the period shown in the 5th column
The result of decreased dopaminergic efficiency and/or availability may be dysphoric interference with the ability to experience the normal range of positive affect over the range from mild interest to pleasant excitement, and from ordinary contentment to great joy. Such decreased dopaminergic transmission efficiency may be caused by agents that block the serotonin transporter alone, and/or those that block both the serotonin transporter and the norepinephrine transporter, and/or those that increase the synthesis and release of both norepinephrine and serotonin and any mechanism whereby the efficiency of serotonergic transmission is enhanced.

Series [2] deals with patients afflicted with anhedonia. As to the kind of experiment: Treatment of iatrogenic anhedonia in patients with agents enhancing dopaminergic availability and/or efficiency. The conditions noted are these: about 2.5 mg prn, no more than once daily, on as few as two to five days per week. Type of series: in vivo.
Setting [3] is: period for which the SSRI produced excellent remission of major depressive disorder.

Regarding `CN(C)CCCC1(c2ccc(F)cc2)OCc2cc(C#N)ccc21` (stereo not drawn) [citalopram], in series [1] (setting [3]), the “SSRI duration before new symptoms” value came to 6 months.
On the same count and under the same terms, the result for `CN[C@H]1CC[C@@H](c2ccc(Cl)c(Cl)c2)c2ccccc21` [sertraline] reads 2 years.
Regarding `CNCCC(Oc1ccc(C(F)(F)F)cc1)c1ccccc1` (stereo not drawn) [fluoxetine], the “SSRI duration before new symptoms” value in series [1] (setting [3]) came to 2 years; in series [1] (period of excellent remission, some patients 10 years intermittent (stopped Rx each time anomie experienced)) it was 1 year.
With `COC(=O)[C@H](c1ccccc1)[C@H]1CCCCN1` [dexmethylphenidate], the improvement of anhedonia result in series [2] is “Satisfactory and ongoing improvement”.
Turning to `Fc1ccc([C@@H]2CCNC[C@H]2COc2ccc3c(c2)OCO3)cc1` [paroxetine], in series [1] (setting [3]), the “SSRI duration before new symptoms” value is recorded as 10 years.
